According to US20220251052A1, “IMPROVED PROCESS FOR THE PREPARATION OF 2-(3,5-DICHLOROPHENYL)-1,3-BENZOXAZOLE-6-CARBOXYLIC ACID OR ITS PHARMACEUTICALLY ACCEPTABLE SALTS AND POLYMORPHS THEREOF” (MSN LABORATORIES PRIVATE LIMITED, R&D CENTER, priority 2019, published 2022):

Assay: Solid-state stability of the crystalline form under stress conditions
Format: physicochemical
Details: 60±5° C. for 24 hours; 10 tons of pressure; UV light at 254nm for 24 hours; 75±5% relative humidity for 24 hours
Protocol: In third aspect of third embodiment, crystalline Form-R of Tafamidis of formula (I) is stable under stress conditions at 60±5° C. for 24 hours, 10 tons of pressure, under UV light at 254nm for 24 hours and higher humidity conditions of 75±5% relative humidity for 24 hours.

O=C(O)c1ccc2nc(-c3cc(Cl)cc(Cl)c3)oc2c1 [Form-R, 2-(3,5-dichlorophenyl)-1,3-benzoxazole-6-carboxylic acid]
polymorphic stability under stress conditions (does not convert to any other polymorphic form): stable
